The values that follow come from US6440432B1, “Skin cosmetic compositions containing dextran or maltodextrin and a weak carboxylic acid” (Unilever Home & Personal Care USA, a division of Conopco, …, priority 1999, dated 2002).

“Also recorded” adds a separate entry of the source.

For series [1] the following is noted: cited from earlier work.
Series [2] concerns contralateral nasolabial folds of subjects sensitive to glycolic acid. Put plainly: in-vivo sting test (sting/burn propensity and forced choice). The settings on record: for Effect on stinging/burning propensity of Base Formula A containing 8% glycolic acid (in words): substance added to the formulation, pH 3.8; for Effect on sting/irritation caused by weak carboxylic acids (in words, summary): summary of Examples 1-6.
Excerpt: (§1) Procedure for in-vivo sting test: This was a randomized, double blind study where each subject evaluated one test formulation and a control formulation or two test formulations on contralateral nasolabial folds. […] A maximum of 20 qualified subjects (minimum of 15) were utilized in each subsequent test. One paired comparison was made on each testing day, with a minimum of 3 days between sting testing throughout the study. Subjects underwent a 15 second Ivory soap wash regime immediately prior to product testing for enhancing sting response. […] Study personnel then applied one test formulation and one control or test formulation simultaneously to the appropriate left/right test site, and gently but thoroughly rubbed in. Subjects compared the stinging potential of the two formulations, over a 7.5 minute period using a self-assessment questionnaire.
(§2) Sting/Burn Propensity: The degree of stinging/burning felt on the left and right inner cheek and crease of the nose was evaluated using the following scale at the times indicated in Tables below:
(§3) 0-no stinging/burning; 1-very slight stinging/burning; 2-slight stinging/burning; 3-moderate stinging/burning; 4-moderately high stinging/burning; 5-high stinging/burning; 6-extreme stinging/burning.
(§4) Determination of Statistical Significance: At each evaluation time point after baseline, the parametric paired t-test (two-tailed) was performed, to compare the extent of attribute change from baseline between each treatment comprising a paired comparison test, with subject acting as a block in these analyses. […] The test can be implemented using the SAS software procedure MEANS with the T and PRT options specified.
(§5) Statistical significance was determined at p≦0.1.

Series [3] deals with skin. The note with it: LAREX publication Mar. 23, 1998; cited from earlier work.
The test system of series [4] is procollagen I in neonatal human dermal fibroblasts. Nature of the series: procollagen I production by fibroblasts (slot blot). Format: cell-based. The note with it: combination with glycolic acid. The source says: Collagen is a predominant skin protein. It is synthesized by fibroblasts in the dermis. The synthesis of collagen decreases with aging or photodamage. Collagen l is first made as a precursor molecule called Pro-collagen l. Increased production of procollagen 1 is a marker of an increased collagen level in response to a test compound application.
Method: Neonatal human dermal fibroblasts were purchased from Clonetics Corp., San Diego, Calif. All materials for cell culture were purchased from Life Technologies, NY. Cells (between passages 5-10) were seeded at a density of approximately 10,000/well in the inner 48 wells of a 96-well plate in DMEM (Dulbecco's Modified Eagle's Medium), high-glucose, supplemented with 2 mM L-glutamine, 10% fetal bovine serum, and antibiotic and antimycotic solutions. Cells were then grown to confluence for 2 days. At confluence, the medium was removed and cells were washed with serum-free DMEM, and each well dosed with 200 μl of a solution of a test compound in serum-free DMEM. Each dosing was replicated in the total of six wells. […]
For the analysis of procollagen I in the solutions, they were diluted in DMEM (approximately 20 μl sample in 200 μl DMEM). […] Percent increase was calculated as a ratio of optical density of cells treated with a test compound over control ×100.

Series [5] deals with transglutaminase-K (Tgase K) in Normal Human keratinocytes. Put plainly: keratinocyte differentiation (transglutaminase absorbance / µg DNA). In kind it is cell-based. The note with it: combination with lactic acid. An excerpt:
Keratinocytes, the major cell type in the epidermis, undergo a program of differentiation leading to formation of corneocytes which form the stratum corneum and provide a protective barrier against water loss and entry of harmful substances and pathogens. A prominent feature of keratinocyte differentiation is the formation of a highly insoluble, cross-linked envelope (CE) immediately beneath the keratinocyte plasma membrane. The production of keratinocyte CE is catalyzed by the enzyme transglutaminase-K (Tgase K) which cross-links certain precursor proteins in the cell. […] Therefore, agents that increase Tgase-K activity have the potential of providing benefits to the skin.
Method: Normal Human keratinocytes were seeded in 96-well plates at 4000 cells/well and grown in Keratinocyte Growth Medium (KGM) obtained from Clonetics Corp. Cells were treated with test compounds at various concentrations for 48 hours with an intermittent change of medium after 24 hrs. 6 replicate wells were used for each test. At the end of the incubation period, two parameters were measured on the cells—I. DNA and II. […]
I. DNA was measured using a method described by Rago et al Anal. Biochem 191:31-34,1990. […] Readings were then taken on Millipore Fluorescence Miicroplate Reader (ex/em 360/450 nm). Amount of DNA per well (α) was calculated using standards.
II. […] Absorbance was measured at 490nm (b). […]

Series [6] deals with photodamaged skin on both forearms. Nature of the series: 12-week bilateral comparison use test, clinical assessment of photodamaged skin. The note with it: summary statement. In kind it is in vivo, human. As for the experimental part: Procedure: The study was a 12-week bilateral comparison use test of two formulations. […] At Baseline (week 0), week 4, 8 and 12, visual evaluation was conducted. Product assignment was randomized and balanced for left/right usage across the subject pool. Subjects were instructed to use the appropriate product to the left/right arms at home and applied approximately 1 gram twice daily for 12 weeks. A minimum of 15 qualified subjects per paired comparison completed the study. […] 0=none […] 4-6=moderate 7-9=severe The following paired comparisons were made: […] The Wilcoxon signed rank test, Pratt-Lehmann version, was used to statistically assess the magnitude of average change from baseline attributable to treatment with subject acting as a block in this analysis. In addition, to compare the extent of change from baseline between the two treatments within a cell, the nonparametric Wilcoxon signed-rank test, Pratt-Lehmann version, was also used.

Series [7] concerns contralateral nasolabial folds of subjects sensitive to glycolic acid. The note with it: in vivo, pH 3.8.
Excerpt: as §1, §2, §3, §4, §5

Regarding `CC(O)CC(=O)O` (stereo not drawn) [beta-hydroxybutyric], the pKa in series [1] is 4.7.

With `C[C@]12CCC(=O)C=C1CC[C@@H]1[C@@H]2[C@@H](O)C[C@@]2(C)[C@H]1CC[C@]2(O)C(=O)CO` [hydrocortisone, Hydrocortisone], in series [2], the “Effect on stinging/burning propensity of Base Formula A containing 8% glycolic acid (in words)” value is “neither hydrocortisone nor arabinogalactan reduced the sting” and the “Effect on sting/irritation caused by weak carboxylic acids (in words, summary)” value (“Effect on sting/irritation caused” below) is “did not reduce the sting caused by weak carboxylic acids”.

Consider Arabinogalactan, for which, in series [3], the “Increase of exfoliation performance of a skin care lotion containing alpha hydroxy acid” value is 80% and the “Irritation of the skin care lotion containing alpha hydroxy acid (in words)” value is reported as “without increased irritation”. Also, in series [2], the “Effect on stinging/burning propensity of Base Formula A containing 8% glycolic acid (in words)” value was “neither hydrocortisone nor arabinogalactan reduced the sting; also recorded: slightly enhanced the sting” and the “Effect on sting/irritation caused” value is “does not have this effect; also recorded: did not reduce the sting caused by weak carboxylic acids”. Further, in series [4], the “Effect on procollagen I levels (in words)” value is on record as “did not”. Moreover, in series [5], the “Effect on keratinocyte differentiation (in words)” value is listed as “did not”.

Consider Dextran, for which the “Effect on sting/irritation caused” value in series [2] is on record as “decrease irritation; also recorded: reduced the sting caused by weak acids”. For the same compound, in series [4], the “Effect on procollagen I levels (in words)” value was “significant increase in procollagen l levels”. Also, the “Effect on anti-aging efficacy of hydroxy acids (in words)” value in series [6] was “enhances the anti-aging efficacy of hydroxy acids”. Besides, the “Effect on stinging/burning propensity of Base Formula B containing 8% glycolic acid (in words)” value in series [7] is “reduced the stinging/burning propensity”.

As for Maltodextrin, in series [2], the “Effect on sting/irritation caused” value is “decrease irritation”.
